pEC50: −log10 of the molar value.
Biological target: Activated AMPK complex 1 (containing alpha1beta1gamma1) (Homo sapiens (Human), UniProt Q13131+Q9Y478)
Test: in vitro AMPK activation assay (ADP-Glo Kinase Assay)
Type: biochemical
Details: 1 μM peptide substrate, 30 μM ATP, 60 min, room temperature, luminescence
Source text: Activated AMPK complex 1 (containing alpha1beta1gamma1) was obtained from baculovirus expression system. The gene encoding AMPK alpha1 was cloned into the pACG2T vector (BD Biosciences) to obtain a N-terminal Glutathion S transferase (GST)-fusion protein. The genes encoding AMPK beta 1 and gamma1 were cloned into the p2Bac dual multiple cloning site vector (Invitrogen) with beta1 under the control of the p10 promoter and gamma1 under the control of the PH promoter. The transfer vectors containing AMPK were co-transfected individually with AcPNV BacMagic-3 DNA (EMD Millipore) in Sf9 cells and the recombinant baculoviruses were harvested after 5 days, followed by 3 rounds of amplification of the virus stock in Sf9 cells. AMPK (alpha1beta1gamma1) was expressed in High Five 5 cells by co-infection of recombinant alpha1 virus and recombinant beta1/gamma1 virus for 72 h at 27° C. Cells were harvested by centrifugation and lysed by 3 freeze/thaw cycles in PBS with 10% glycerol and protease inhibitor cocktail (Roche). After centrifugation AMPK a1b1g1 in the supernatant was captured by immobilized glutathione (GE Healthcare), impurities were washed away with PBS and AMPK alpha1beta1gamma1 was eluted with PBS containing 20 mM reduced gluthathione. The protein buffer was then exchanged to PBS with 10% glycerol and protein concentration was determined by UV absorbance.
The white 384-well Optiplates (cat. no. 6007299) were purchased from PerkinElmer. The V9101 ADP-Glo Kinase Assay and ultra pure ATP (V915A) was purchased from Promega. The substrate for AMPK (NH2-HMRSAMSGLHLVKRR_CONH2) was purchased from Upstate (12-355).
Compounds were tested in either serial dilutions or single dose concentrations. The serial compound dilutions were prepared in 100% DMSO automatically. The final DMSO concentration in the assay was 0.1%.
The Compound Stock Solutions were 10 mM in 100% DMSO. The compounds were solubilised at room temperature.
In the 384-well plates 1.25 ul of test compound in assay buffer was mixed with 1.25 ul of AMPK and 1.25 μl of the peptide (final concentration of 1 μM) and 1.25 μl of ATP (final concentration of 30 μM), both dissolved in assay buffer. This step was followed by an incubation time of 60 min. Then 5 μl of ADP Glo Reagent was added. This was followed by 40 min of incubation. Then 10 μl of Kinase Detection Reagent was admixed. The plates were sealed and after an incubation period of 30 min, the luminescence signal was measured in an Envision reader. All incubation steps were accomplished at room temperature.
Each assay microtiter plate contained wells with vehicle controls instead of compound (0.1% DMSO in water) as reference for the low signal (100% CTL, low signal), and wells with serial dilutions of AMP (final 30 μM) as reference for high signals.
The luminescence signal generated was proportional to the ADP concentration produced and was correlated with AMPK activity. The analysis of the data was performed by the calculation of the percentage of ATP consumption of AMPK in the presence of the test compound compared to the consumption of ATP in the presence of AMPK without compound. (RLU(sample)/RLU(low control))*100[RLU=relative luminescence units]
An activator of the AMPK enzyme gave values above 100% CTL.
EC50 values based on dose response curves are calculated with the XIFIT software using the 4 Parameter Logistic Model or Sigmoidal Dose-Response Model.

Activated AMPK complex 1 (containing alpha1beta1gamma1), sequence (Q13131 whole entry): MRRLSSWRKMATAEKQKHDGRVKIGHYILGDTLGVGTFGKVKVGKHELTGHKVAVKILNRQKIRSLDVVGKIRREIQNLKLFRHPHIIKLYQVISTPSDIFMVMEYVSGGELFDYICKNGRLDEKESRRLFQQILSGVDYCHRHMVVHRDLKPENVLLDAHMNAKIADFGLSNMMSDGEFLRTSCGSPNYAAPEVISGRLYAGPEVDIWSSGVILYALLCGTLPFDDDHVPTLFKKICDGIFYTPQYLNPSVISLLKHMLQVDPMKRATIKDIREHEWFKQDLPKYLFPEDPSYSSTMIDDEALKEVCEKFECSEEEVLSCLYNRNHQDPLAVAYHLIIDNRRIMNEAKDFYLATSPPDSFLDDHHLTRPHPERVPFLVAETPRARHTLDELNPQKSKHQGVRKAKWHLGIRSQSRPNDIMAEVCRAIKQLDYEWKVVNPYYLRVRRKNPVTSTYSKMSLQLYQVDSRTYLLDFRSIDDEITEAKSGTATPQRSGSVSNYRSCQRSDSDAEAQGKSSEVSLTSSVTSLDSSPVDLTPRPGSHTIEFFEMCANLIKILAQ
Activated AMPK complex 1 (containing alpha1beta1gamma1), sequence (Q9Y478 whole entry): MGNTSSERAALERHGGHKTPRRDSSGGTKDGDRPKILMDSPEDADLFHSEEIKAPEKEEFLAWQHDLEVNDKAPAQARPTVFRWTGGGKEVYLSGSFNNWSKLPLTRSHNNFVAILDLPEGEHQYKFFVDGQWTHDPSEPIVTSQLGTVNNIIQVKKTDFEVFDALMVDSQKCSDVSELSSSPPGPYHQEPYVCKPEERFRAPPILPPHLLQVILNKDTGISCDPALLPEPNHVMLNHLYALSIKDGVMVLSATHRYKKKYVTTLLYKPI
Activated AMPK complex 1 (containing alpha1beta1gamma1), sequence (P54619 whole entry partner): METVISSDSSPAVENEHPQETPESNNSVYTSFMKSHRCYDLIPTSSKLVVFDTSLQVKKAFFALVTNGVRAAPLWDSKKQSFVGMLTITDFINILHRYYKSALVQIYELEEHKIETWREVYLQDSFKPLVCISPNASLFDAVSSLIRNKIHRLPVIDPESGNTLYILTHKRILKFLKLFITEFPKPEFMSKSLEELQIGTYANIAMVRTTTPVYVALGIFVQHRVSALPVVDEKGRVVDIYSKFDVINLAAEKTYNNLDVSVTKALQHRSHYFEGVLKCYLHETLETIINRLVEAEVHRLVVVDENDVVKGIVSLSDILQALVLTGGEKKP

Row | SMILES | pEC50
1 | CN(C)S(C)(=O)=Nc1ccc(-c2ccc(-c3nc4[nH]c(O[C@@H]5CO[C@H]6[C@@H]5OC[C@H]6O)nc4cc3Cl)cc2)cc1 (stereo partly drawn) [Example 1, N′-{4-[4-(2-{[(3R,3aR,6R,6aR)-6-Hydroxy-hexahydrofuro[3,2-b]furan-3-yl]oxy}-6-chloro-3H-imidazo[4,5-b]pyridin-5-yl)phenyl]phenyl}-N,N-dimethyl-methanesulfonimidamide] | 7.59
2 | CNS(C)(=O)=Nc1ccc(-c2ccc(-c3nc4[nH]c(O[C@@H]5CO[C@H]6[C@@H]5OC[C@H]6O)nc4cc3Cl)cc2)cc1 (stereo partly drawn) [Example 2, N′-{4-[4-(2-{[(3R,3aR,6R,6aR)-6-Hydroxy-hexahydrofuro[3,2-b]furan-3-yl]oxy}-6-chloro-3H-imidazo[4,5-b]pyridin-5-yl)phenyl]phenyl}-N-methyl-methanesulfonimidamide] | 7.70
3 | CC(C)NS(C)(=O)=Nc1ccc(-c2ccc(-c3nc4[nH]c(O[C@@H]5CO[C@H]6[C@@H]5OC[C@H]6O)nc4cc3Cl)cc2)cc1 (stereo partly drawn) [Example 3, N′-{4-[4-(2-{[(3R,3aR,6R,6aR)-6-Hydroxy-hexahydrofuro[3,2-b]furan-3-yl]oxy}-6-chloro-3H-imidazo[4,5-b]pyridin-5-yl)phenyl]phenyl}-N-(propan-2-yl)-methanesulfonimidamide] | 7.03
4 | CCN(C)S(C)(=O)=Nc1ccc(-c2ccc(-c3nc4[nH]c(O[C@@H]5CO[C@H]6[C@@H]5OC[C@H]6O)nc4cc3Cl)cc2)cc1 (stereo partly drawn) [Example 4, N′-{4-[4-(2-{[(3R,3aR,6R,6aR)-6-Hydroxy-hexahydrofuro[3,2-b]furan-3-yl]oxy}-6-chloro-3H-imidazo[4,5-b]pyridin-5-yl)phenyl]phenyl}-N-ethyl-N-methyl-methanesulfonimidamide] | 7.28
5 | CS(=O)(=Nc1ccc(-c2ccc(-c3nc4[nH]c(O[C@@H]5CO[C@H]6[C@@H]5OC[C@H]6O)nc4cc3Cl)cc2)cc1)N1CCC1 (some centres unmarked) [Example 5] | 7.82
6 | CS(=O)(=Nc1ccc(-c2ccc(-c3nc4[nH]c(O[C@@H]5CO[C@H]6[C@@H]5OC[C@H]6O)nc4cc3Cl)cc2)cc1)N1CCCC1 (stereo partly drawn) [Example 6, (3R,3aR,6R,6aR)-6-({6-Chloro-5-[4-(4-{[methyl(oxo)pyrrolidin-1-yl-λ^6-sulfanylidene]-amino}phenyl)phenyl]-3H-imidazo[4,5-b]pyridin-2-yl}oxy)hexahydrofuro[3,2-b]furan-3-ol] | 7.27
7 | CS(=O)(=Nc1ccc(-c2ccc(-c3nc4[nH]c(O[C@@H]5CO[C@H]6[C@@H]5OC[C@H]6O)nc4cc3Cl)cc2)cc1)NC1CCC1 (stereo partly drawn) [Example 7, N-{4-[4-(2-{[(3R,3aR,6R,6aR)-6-Hydroxy-hexahydrofuro[3,2-b]furan-3-yl]oxy}-6-chloro-3H-imidazo[4,5-b]pyridin-5-yl)phenyl]phenyl}-N′-cyclobutyl-methanesulfonimidamide] | 7.43
8 | CCNS(C)(=O)=Nc1ccc(-c2ccc(-c3nc4[nH]c(O[C@@H]5CO[C@H]6[C@@H]5OC[C@H]6O)nc4cc3Cl)cc2)cc1 (stereo partly drawn) [Example 8, N-{4-[4-(2-{[(3R,3aR,6R,6aR)-6-Hydroxy-hexahydrofuro[3,2-b]furan-3-yl]oxy}-6-chloro-3H-imidazo[4,5-b]pyridin-5-yl)phenyl]phenyl}-N′-ethyl-methanesulfonimidamide] | 7.21
9 | CS(=O)(=Nc1ccc(-c2ccc(-c3nc4[nH]c(O[C@@H]5CO[C@H]6[C@@H]5OC[C@H]6O)nc4cc3Cl)cc2)cc1)NC1CC1 (stereo partly drawn) [Example 9, N-{4-[4-(2-{[(3R,3aR,6R,6aR)-6-Hydroxy-hexahydrofuro[3,2-b]furan-3-yl]oxy}-6-chloro-3H-imidazo[4,5-b]pyridin-5-yl)phenyl]phenyl}-N′-cyclopropyl-methanesulfonimidamide] | 7.05
10 | CN(C)S(C)(=O)=Nc1ccc(-c2ccc(-c3nc4[nH]c(O[C@@H]5CO[C@H]6[C@@H]5OC[C@H]6O)nc4cc3Cl)cc2)nc1 (stereo partly drawn) [Example 10, N′-{6-[4-(2-{[(3R,3aR,6R,6aR)-6-Hydroxy-hexahydrofuro[3,2-b]furan-3-yl]oxy}-6-chloro-3H-imidazo[4,5-b]pyridin-5-yl)phenyl]pyridin-3-yl}-N,N-dimethyl-methanesulfonimidamide] | 7.77
11 | CNS(C)(=O)=Nc1ccc(-c2ccc(-c3nc4[nH]c(O[C@@H]5CO[C@H]6[C@@H]5OC[C@H]6O)nc4cc3Cl)cc2)nc1 (stereo partly drawn) [Example 11, N′-{6-[4-(2-{[(3R,3aR,6R,6aR)-6-Hydroxy-hexahydrofuro[3,2-b]furan-3-yl]oxy}-6-chloro-3H-imidazo[4,5-b]pyridin-5-yl)phenyl]pyridin-3-yl}-N-methyl-methanesulfonimidamide] | 7.21
12 | CN(C)S(=N)(=O)c1ccc(-c2ccc(-c3nc4[nH]c(O[C@@H]5CO[C@H]6[C@@H]5OC[C@H]6O)nc4cc3Cl)cc2)cc1 (stereo partly drawn) [Example 12, 4-[4-(2-{[(3R,3aR,6R,6aR)-6-Hydroxy-hexahydrofuro[3,2-b]furan-3-yl]oxy}-6-chloro-3H-imidazo[4,5-b]pyridin-5-yl)phenyl]-N,N-dimethyl-benzenesulfonimidamide] | 8.70
13 | CN(C)S(C)(=O)=Nc1cnc(-c2ccc(-c3nc4[nH]c(O[C@@H]5CO[C@H]6[C@@H]5OC[C@H]6O)nc4cc3Cl)cc2)nc1 (stereo partly drawn) [Example 13, N′-{2-[4-(2-{[(3R,3aR,6R,6aR)-6-hydroxy-hexahydrofuro[3,2-b]furan-3-yl]oxy}-6-chloro-3H-imidazo[4,5-b]pyridin-5-yl)phenyl]pyrimidin-5-yl}-N,N-dimethyl-methanesulfonimidamide] | 7.52
14 | N=S1(=O)CCCN1Cc1ccc(-c2ccc(-c3nc4[nH]c(O[C@@H]5CO[C@H]6[C@@H]5OC[C@H]6O)nc4cc3Cl)cc2)cc1 (stereo partly drawn) [Example 14, 2-({4-[4-(2-{[(3R,3aR,6R,6aR)-6-Hydroxy-hexahydrofuro[3,2-b]furan-3-yl]oxy}-6-chloro-3H-imidazo[4,5-b]pyridin-5-yl)phenyl]phenyl}methyl)-1-imino-1λ^6,2-thiazolidin-1-one] | 7.28
15 | CN=S(=O)(c1ccc(-c2ccc(-c3nc4[nH]c(O[C@@H]5CO[C@H]6[C@@H]5OC[C@H]6O)nc4cc3Cl)cc2)cc1)N(C)C (stereo partly drawn) [Example 15, 4-[4-(2-{[(3R,3aR,6R,6aR)-6-Hydroxy-hexahydrofuro[3,2-b]furan-3-yl]oxy}-6-chloro-3H-imidazo[4,5-b]pyridin-5-yl)phenyl]-N,N,N′-trimethyl-benzenesulfonimidamide] | 7.05
16 | CS(=O)(=Nc1cnc(-c2ccc(-c3nc4[nH]c(O[C@@H]5CO[C@H]6[C@@H]5OC[C@H]6O)nc4cc3Cl)cc2)nc1)N1CCCC1 (stereo partly drawn) [Example 16, (3R,3aR,6R,6aR)-6-({6-Chloro-5-[4-(5-{[methyl(oxo)pyrrolidin-1-yl-λ^6-sulfanylidene]-amino}pyrimidin-2-yl)phenyl]-3H-imidazo[4,5-b]pyridin-2-yl}oxy)-hexahydrofuro[3,2-b]furan-3-ol] | 7.32
17 | N#CN=S1(=O)CCCN1c1ccc(-c2ccc(-c3nc4[nH]c(O[C@@H]5CO[C@H]6[C@@H]5OC[C@H]6O)nc4cc3Cl)cc2)cc1 (stereo partly drawn) [Example 17, [(2-{4-[4-(2-{[(3R,3aR,6R,6aR)-6-Hydroxy-hexahydrofuro[3,2-b]furan-3-yl]oxy}-6-chloro-3H-imidazo[4,5-b]pyridin-5-yl)phenyl]phenyl}-1-oxo-1λ^6,2-thiazolidin-1-ylidene)amino]carbonitrile] | 6.69

Reference: patent US9422312B2, “Azabenzimidazole derivatives” (Boehringer Ingelheim International GmbH, priority 2014, dated 2016)
